Experiment in all cases: Kinase inhibitor library screening, PrestoBlue cell viability, 1 or 10 μM, 72 h
In data set [1] the test system is A375-XP cells (Vemurafenib-resistant). The conditions noted are these: A375 XP, 72 h.
The test system of a further data set is 501Mel cells (parental). The conditions noted are these: 501Mel Parental, 72 h. In a few lines:
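Normalised to untreated controls, viability percentages came from PrestoBlue measured on a microplate reader following 72 h incubation with drug. Each line was assayed at least twice.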

For data set [2], the system named is IGR37-GP cells (Dabrafenib-resistant). The conditions noted are these: IGR37 GP, 72 h.
The next data set has as its system IGR37 cells (parental). The settings on record: IGR37 Parental, 72 h.
Data set [3] has as its system 501Mel-GP cells (Dabrafenib-resistant). The conditions noted are these: 501Mel GP, 72 h.
The subject of data set [4] is A375-GP cells (Dabrafenib-resistant). The settings on record: A375 GP, 72 h.
The subject of the next data set is A375 cells (parental). The conditions noted are these: A375 Parental, 72 h.
The subject of data set [5] is IGR37-XP cells (Vemurafenib-resistant). The settings on record: IGR37 XP, 72 h.
The subject of data set [6] is 501Mel-XP cells (Vemurafenib-resistant). The conditions noted are these: 501Mel XP, 72 h.

SMILES strings stand for the structures.

With `CNC(=O)Nc1ccc(-c2nc(N3CC4CCC(C3)O4)c3cnn(C4CCC5(CC4)OCCO5)c3n2)cc1` [WYE-125132], the “Cell viability in kinase inhibitor library screening, A375 XP, 1μΜ” value in [1] (1μΜ) stood at 19.4. Moreover, in data set [1] (10μΜ), the “Cell viability in kinase inhibitor library screening, A375 XP, 10μΜ” value came out at 17.0. Further, the “Cell viability in kinase inhibitor library screening, 501Mel Parental, 1μΜ” value with 501Mel cells (parental) (1μΜ, in %) is listed as 17.3. For the same compound, in the data set on 501Mel cells (parental) (10μΜ, in %), the “Cell viability in kinase inhibitor library screening, 501Mel Parental, 10μΜ” value was determined as 5.8. The compound further gave a Cell viability in kinase inhibitor library screening, IGR37 GP, 10μΜ in data set [2] (10μΜ) of 34%. The “Cell viability in kinase inhibitor library screening, IGR37 GP, 1μΜ” value in data set [2] (1μΜ, in %) is listed as 43.3. Moreover, the “Cell viability in kinase inhibitor library screening, IGR37 Parental, 1μΜ” value in the data set with IGR37 cells (parental) (1μΜ, in %) came out at 27.6. Moreover, in the data set with IGR37 cells (parental) (10μΜ, in %), the “Cell viability in kinase inhibitor library screening, IGR37 Parental, 10μΜ” value was found to be 22.1. Also, the “Cell viability in kinase inhibitor library screening, 501Mel GP, 1μΜ” value in data set [3] (1μΜ, in %) turned out to be 16.3. For the same compound, in data set [3] (10μΜ, in %), the “Cell viability in kinase inhibitor library screening, 501Mel GP, 10μΜ” value was determined as 8.1. The “Cell viability in kinase inhibitor library screening, A375 GP, 1μΜ” value in data set [4] (1μΜ) was determined as 22.4. Further, the “Cell viability in kinase inhibitor library screening, A375 GP, 10μΜ” value in data set [4] (10μΜ) is given as 15.7. For the same compound, the “Cell viability in kinase inhibitor library screening, A375 Parental, 10μΜ” value with A375 cells (parental) (10μΜ) was 19.3. Also, the “Cell viability in kinase inhibitor library screening, A375 Parental, 1μΜ” value in the data set with A375 cells (parental) (1μΜ) was 22.3. In addition, the Cell viability in kinase inhibitor library screening, IGR37 XP, 10μΜ in [5] (10μΜ) turned out to be 12.8%. Also, the “Cell viability in kinase inhibitor library screening, IGR37 XP, 1μΜ” value in data set [5] (1μΜ, in %) is 30.9. Further, the “Cell viability in kinase inhibitor library screening, 501Mel XP, 1μΜ” value in data set [6] (1μΜ, in %) came to 18.5. Also, the “Cell viability in kinase inhibitor library screening, 501Mel XP, 10μΜ” value in [6] (10μΜ, in %) is reported as 5.5.
Consider `CC(C)c1cnn2c(NCc3ccccc3)cc(NCCCCCCN)nc12.Cl` [BS-181 HCl], for which the “cell viability (kinase inhibitor library screening)” value in data set [1] (1μΜ) came to 112.1%; in data set [1] (10μΜ), 92.4%; in the data set with 501Mel cells (parental) (1μΜ) it was 97.6%; in the data set with 501Mel cells (parental) (10μΜ), 87.4%; in data set [2] (1μΜ) it was 92.7%; in data set [2] (10μΜ), 81.4%. The “cell viability (kinase inhibitor library screening)” value in the data set on IGR37 cells (parental) (1μΜ) was 98.6%; in [3] (1μΜ) it was 108.6%; in data set [3] (10μΜ), 87.7%; in [4] (1μΜ), 105.9%; in [4] (10μΜ), 84.9%; in the data set on A375 cells (parental) (10μΜ) it was 91.6%. The “cell viability (kinase inhibitor library screening)” value amounted to 97.6% in [5] (1μΜ), 59.8% in data set [5] (10μΜ), 98.4% in data set [6] (1μΜ) and 55.9% in data set [6] (10μΜ).
In the case of `CN1CCN(C2CCN(C(=O)Nc3cc(Oc4ccc(NC(=O)C5(C(=O)Nc6ccc(F)cc6)CC5)c(F)c4)ccn3)CC2)CC1` [Golvatinib (E7050)], the “cell viability (kinase inhibitor library screening)” value in data set [1] (1μΜ) came out at 99.6%; in data set [1] (10μΜ) it was 65.0%; with 501Mel cells (parental) (1μΜ), 96.5%; in the data set with 501Mel cells (parental) (10μΜ), 0.148%; in data set [2] (1μΜ), 92.1%; in data set [2] (10μΜ) it was 49.6%. Moreover, the “cell viability (kinase inhibitor library screening)” value with IGR37 cells (parental) (1μΜ) is recorded as 99.0%; with IGR37 cells (parental) (10μΜ), 18.3%; in [3] (1μΜ) it was 81.2%; in data set [3] (10μΜ), -0.26%; in [4] (1μΜ) it was 103.0%; in [4] (10μΜ) it was 53.0%. In addition, the “cell viability (kinase inhibitor library screening)” value is given as 70.5% in the data set with A375 cells (parental) (10μΜ); 93.1% with A375 cells (parental) (1μΜ); 95.2% in [5] (1μΜ); 10.4% in [5] (10μΜ); 66.2% in data set [6] (1μΜ); -0.363% in data set [6] (10μΜ).
For the compound `CNC(=O)c1ccc(-c2cnc3ncc(Cc4ccc5ncccc5c4)n3n2)cc1F` [INCB28060], the “cell viability (kinase inhibitor library screening)” value amounted to 106.9% in [1] (1μΜ); 103.3% in [1] (10μΜ); 99.4% in the data set on 501Mel cells (parental) (1μΜ); 93.5% in the data set with 501Mel cells (parental) (10μΜ); 97.1% in data set [2] (1μΜ); 85.7% in data set [2] (10μΜ). Besides, the “cell viability (kinase inhibitor library screening)” value in the data set on IGR37 cells (parental) (1μΜ) was found to be 106.9%; in the data set with IGR37 cells (parental) (10μΜ) it was 100.3%; in [3] (1μΜ) it was 81.7%; in data set [3] (10μΜ), 67.0%; in data set [4] (1μΜ) it was 103.9%; in [4] (10μΜ), 95.7%. Besides, the “cell viability (kinase inhibitor library screening)” value was 103.1% in the data set on A375 cells (parental) (1μΜ); 98.3% in [5] (1μΜ); 47.6% in data set [5] (10μΜ); 68.2% in data set [6] (1μΜ); 62.9% in data set [6] (10μΜ).
With `CO[C@H]1C[C@@H]2CC[C@@H](C)[C@@](O)(O2)C(=O)C(=O)N2CCCC[C@H]2C(=O)O[C@H]([C@H](C)C[C@@H]2CC[C@@H](O)[C@H](OC)C2)CC(=O)[C@H](C)/C=C(\C)[C@@H](O)[C@@H](OC)C(=O)[C@H](C)C[C@H](C)/C=C/C=C/C=C/1C` [Rapamycin (Sirolimus)], in data set [1] (1μΜ), the “Cell viability in kinase inhibitor library screening, A375 XP, 1μΜ” value is 79.4. In addition, the “Cell viability in kinase inhibitor library screening, A375 XP, 10μΜ” value in data set [1] (10μΜ) is on record as 83.3. Also, the “Cell viability in kinase inhibitor library screening, 501Mel Parental, 1μΜ” value with 501Mel cells (parental) (1μΜ, in %) is 84.7. In addition, the “Cell viability in kinase inhibitor library screening, 501Mel Parental, 10μΜ” value in the data set on 501Mel cells (parental) (10μΜ, in %) came to 77.5. The same compound returned a Cell viability in kinase inhibitor library screening, IGR37 GP, 10μΜ in [2] (10μΜ) of 76.7%. Also, in [2] (1μΜ, in %), the “Cell viability in kinase inhibitor library screening, IGR37 GP, 1μΜ” value stood at 92.2. For the same compound, in the data set on IGR37 cells (parental) (1μΜ, in %), the “Cell viability in kinase inhibitor library screening, IGR37 Parental, 1μΜ” value came to 79.9. Further, the “Cell viability in kinase inhibitor library screening, IGR37 Parental, 10μΜ” value in the data set with IGR37 cells (parental) (10μΜ, in %) is reported as 81.5. In data set [3] (1μΜ, in %), the “Cell viability in kinase inhibitor library screening, 501Mel GP, 1μΜ” value was determined as 69.9. Moreover, the “Cell viability in kinase inhibitor library screening, 501Mel GP, 10μΜ” value in [3] (10μΜ, in %) was determined as 59.4. For the same compound, in [4] (1μΜ), the “Cell viability in kinase inhibitor library screening, A375 GP, 1μΜ” value came to 80.8. Besides, the “Cell viability in kinase inhibitor library screening, A375 GP, 10μΜ” value in [4] (10μΜ) is 79.4. The “Cell viability in kinase inhibitor library screening, A375 Parental, 10μΜ” value in the data set on A375 cells (parental) (10μΜ) worked out at 72.3. Also, the “Cell viability in kinase inhibitor library screening, A375 Parental, 1μΜ” value with A375 cells (parental) (1μΜ) came out at 80.2. The Cell viability in kinase inhibitor library screening, IGR37 XP, 10μΜ in data set [5] (10μΜ) turned out to be 49.9%. Further, in [5] (1μΜ, in %), the “Cell viability in kinase inhibitor library screening, IGR37 XP, 1μΜ” value amounted to 96.0. Moreover, the “Cell viability in kinase inhibitor library screening, 501Mel XP, 1μΜ” value in data set [6] (1μΜ, in %) turned out to be 56.7. Besides, the “Cell viability in kinase inhibitor library screening, 501Mel XP, 10μΜ” value in data set [6] (10μΜ, in %) is given as 42.7.
Consider `CCc1cc(Nc2nccc(-c3c(-c4ccc(OC)c(C(=O)Nc5c(F)cccc5F)c4)nc4ccccn34)n2)c(OC)cc1N1CCC(N2CCN(S(C)(=O)=O)CC2)CC1` [GSK1904529A], for which the “cell viability, A375 XP, 1μΜ” value in data set [1] (1μΜ, in %) is reported as 104.6. For the same compound, in data set [1] (10μΜ, in %), the “cell viability, A375 XP, 10μΜ” value is given as 97.7. The “cell viability, 501Mel Parental, 1μΜ” value in the data set on 501Mel cells (parental) (1μΜ, in %) stood at 99.4. In addition, the “cell viability, 501Mel Parental, 10μΜ” value with 501Mel cells (parental) (10μΜ, in %) is given as 98.3. The cell viability, IGR37 GP, 10μΜ in data set [2] (10μΜ) was 62.6%. Also, the “cell viability, IGR37 GP, 1μΜ” value in data set [2] (1μΜ, in %) is reported as 98.3. In the data set with IGR37 cells (parental) (1μΜ, in %), the “cell viability, IGR37 Parental, 1μΜ” value is 114.5. Besides, the “cell viability, IGR37 Parental, 10μΜ” value in the data set with IGR37 cells (parental) (10μΜ, in %) came out at 96.7. Moreover, the “cell viability, 501Mel GP, 1μΜ” value in data set [3] (1μΜ, in %) was found to be 109.2. The “cell viability, 501Mel GP, 10μΜ” value in data set [3] (10μΜ, in %) was determined as 89.5. Besides, in data set [4] (1μΜ, in %), the “cell viability, A375 GP, 1μΜ” value turned out to be 98.4. In addition, in [4] (10μΜ, in %), the “cell viability, A375 GP, 10μΜ” value worked out at 92.6. For the same compound, the “cell viability, A375 Parental, 10μΜ” value with A375 cells (parental) (10μΜ, in %) is on record as 94.0. Moreover, the cell viability, IGR37 XP, 10μΜ in data set [5] (10μΜ) came out at 20.4%. Besides, the “cell viability, IGR37 XP, 1μΜ” value in [5] (1μΜ, in %) came out at 98.9. Besides, the “cell viability, 501Mel XP, 1μΜ” value in [6] (1μΜ, in %) was found to be 93.0. Moreover, the “cell viability, 501Mel XP, 10μΜ” value in data set [6] (10μΜ, in %) turned out to be 82.3.

The values are drawn from article PMC6364417, “Kinase inhibitor library screening identifies synergistic drug combinations effective in sensitive and resistant melanoma cells” (Journal of Experimental & Clinical Cancer Research : CR, 2019).
